Reference: US20240228468A1, “N-(6-((OCTAHYDROCYCLOPENTA[C]PYRROL-5-YI)AMINO)PYRIDAZIN-3-YL)PHENYL)CARBOXAMIDE AND (6- ((OCTAHYDROCYCLOPENTA[C]PYRROL-5-YL)AMINO)PYRIDAZIN-3-YL)BENZAMIDE DERIVATIVES AS MACHR M4 ANTAGONISTS FOR THE TREATMENT OF NEURODEGENERATIVE DISORDERS” (Vanderbilt University, priority 2021, published 2024)
Like-named read-outs stand apart in the source and are kept apart here.

Molecular target: T1, Human M4 (Homo sapiens, UniProt P08173)
T1 construct: expressed in transfected cells; host or cells: CHO-K1 (ATCC), co-transfected with chimeric G protein Gqi5
T1 sequence (P08173 1-479): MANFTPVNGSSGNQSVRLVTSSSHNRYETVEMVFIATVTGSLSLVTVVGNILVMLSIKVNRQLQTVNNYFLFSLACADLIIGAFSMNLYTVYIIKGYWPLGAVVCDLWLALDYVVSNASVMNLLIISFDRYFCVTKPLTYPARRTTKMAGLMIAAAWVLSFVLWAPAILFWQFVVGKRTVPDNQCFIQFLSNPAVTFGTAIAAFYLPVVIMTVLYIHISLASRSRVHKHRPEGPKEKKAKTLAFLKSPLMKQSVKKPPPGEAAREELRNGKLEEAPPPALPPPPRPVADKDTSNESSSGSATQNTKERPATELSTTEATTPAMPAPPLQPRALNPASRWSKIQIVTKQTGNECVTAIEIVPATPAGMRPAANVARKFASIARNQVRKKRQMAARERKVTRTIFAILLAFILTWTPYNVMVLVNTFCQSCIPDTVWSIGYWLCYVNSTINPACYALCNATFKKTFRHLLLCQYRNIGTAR
Assay: mAChR M4 cell-based functional assay (calcium flux, antagonism of EC80 acetylcholine response)
Settings: for IC50: concentration-dependent decrease of the response elicited by an EC80 concentration of acetylcholine
Outline: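 CHO-K1 cells stably expressing human M4 with chimeric Gqi5, Fluo-4 loaded; calcium flux read on FDSS. Compound (10-point, 1:3 series) added first, then EC20 acetylcholine at 143 s and EC80 at 268 s. IC50 from concentration-dependent decrease of EC80 response, four-parameter logistic fit.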

[1] = M4/Gqi5/CHO-K1 cells, % ACh maximum at 30 μM, read-out: Human M4 Emin (% ACh maximum at 30 μM)

Compound | remaining activity at 30 µM [1] | IC50 (M4/Gqi5/CHO-K1 cells) | remaining activity at 30 µM (CHO-K1, read-out: Human M4 Emin (% ACh maximum at 30 μM))
[2H]C([2H])(C1CCOCC1)N1C[C@H]2C[C@H](Nc3ccc(-c4cc(F)c(C(=O)NC)c(F)c4F)nn3)C[C@H]2C1 [Compound A66, 2,3,6-trifluoro-N-methyl-4-(6-(((3aR,5s,6aS)-2-((tetrahydro-2H-pyran-4-yl)methyl-d2)octahydrocyclopenta[c]pyrrol-5-yl)amino)pyridazin-3-yl)benzamide] | 4% | 0.016 µM | –
[2H]C([2H])(C1CCOCC1)N1C[C@H]2C[C@H](Nc3ccc(-c4cc(F)c(C(=O)N(C)C)c(F)c4F)nn3)C[C@H]2C1 [Compound A67, 2,3,6-Trifluoro-N,N-dimethyl-4-(6-(((3aR,5s,6aS)-2-((tetrahydro-2H-pyran-4-yl)methyl-d2)octahydrocyclopenta[c]pyrrol-5-yl)amino)pyridazin-3-yl)benzamide] | – | 0.011 µM | 4%
[2H]C([2H])(C1CCOCC1)N1C[C@H]2C[C@H](Nc3ccc(-c4cc(F)c(C(N)=O)c(F)c4)nn3)C[C@H]2C1 [Compound A68, 2,6-difluoro-4-(6-(((3aR,5s,6aS)-2-((tetrahydro-2H-pyran-4-yl)methyl-d2)octahydrocyclopenta[c]pyrrol-5-yl)amino)pyridazin-3-yl)benzamide] | 4% | 0.011 µM | –
[2H]C([2H])(C1CCOCC1)N1C[C@H]2C[C@H](Nc3ccc(-c4cc(C(=O)NC)ccc4F)nn3)C[C@H]2C1 [Compound A69, 4-fluoro-N-methyl-3-(6-(((3aR,5s,6aS)-2-((tetrahydro-2H-pyran-4-yl)methyl-d2)octahydrocyclopenta[c]pyrrol-5-yl)amino)pyridazin-3-yl)benzamide] | 5% | 0.12 µM | –
[2H]C([2H])(C1CCOCC1)N1C[C@H]2C[C@H](Nc3ccc(-c4ccc(C(=O)NC)c(F)c4)nn3)C[C@H]2C1 [Compound A70, 2-fluoro-N-methyl-4-(6-(((3aR,5s,6aS)-2-((tetrahydro-2H-pyran-4-yl)methyl-d2)octahydrocyclopenta[c]pyrrol-5-yl)amino)pyridazin-3-yl)benzamide] | 4% | 0.0047 µM | –
[2H]C([2H])(C1CCOCC1)N1C[C@H]2C[C@H](Nc3ccc(-c4cc(F)cc(C(=O)NC)c4)nn3)C[C@H]2C1 [Compound A71, 3-Fluoro-N-methyl-5-(6-(((3aR,5s,6aS)-2-((tetrahydro-2H-pyran-4-yl)methyl-d2)octahydrocyclopenta[c]pyrrol-5-yl)amino)pyridazin-3-yl)benzamide] | 4% | 0.014 µM | –
[2H]C([2H])(C1CCOCC1)N1C[C@H]2C[C@H](Nc3ccc(-c4cccc(C(=O)NC(C)C)c4)nn3)C[C@H]2C1 [Compound A72, N-isopropyl-3-(6-(((3aR,5s,6aS)-2-((tetrahydro-2H-pyran-4-yl)methyl-d2)octahydrocyclopenta[c]pyrrol-5-yl)amino)pyridazin-3-yl)benzamide] | 5% | 0.028 µM | –
[2H]C([2H])(C1CCOCC1)N1C[C@H]2C[C@H](Nc3ccc(-c4ccc(F)c(C(=O)NC)c4)nn3)C[C@H]2C1 [Compound A73, 2-fluoro-N-methyl-5-(6-(((3aR,5s,6aS)-2-((tetrahydro-2H-pyran-4-yl)methyl-d2)octahydrocyclopenta[c]pyrrol-5-yl)amino)pyridazin-3-yl)benzamide] | 7% | 0.31 µM | –
[2H]C([2H])(C1CCOC(C)(C)C1)N1C[C@H]2C[C@H](Nc3ccc(-c4cccc(C(=O)NC)c4)nn3)C[C@H]2C1 (stereo partly drawn) [Compound A75, 3-(6-(((3aR,5s,6aS)-2-((2,2-dimethyltetrahydro-2H-pyran-4-yl)methyl-d2)octahydrocyclopenta[c]pyrrol-5-yl)amino)pyridazin-3-yl)-N-methylbenzamide] | 3% | 0.0034 µM | –
